The text below walks through data of publication PMC8387997 (ACS Omega, 2021).

Experiment [1] concerns the target SMARCA2B (Homo sapiens, UniProt P51531). The experiment can be described thus: bromoSCAN. The experiment is classed as binding.
Experiment [2] has as its target PB1(5) (Homo sapiens, UniProt Q86U86). Briefly: bromoSCAN. The conditions noted are these: for selectivity for PB1(5) over SMARCA2B: from bromoSCAN KD values. The experiment is classed as binding.
Experiment [3] deals with PB1(2) (Homo sapiens, UniProt Q86U86). The experiment can be described thus: bromoSCAN. Format: binding.
PB1(2), sequence (Q86U86 177-287 limits assumed): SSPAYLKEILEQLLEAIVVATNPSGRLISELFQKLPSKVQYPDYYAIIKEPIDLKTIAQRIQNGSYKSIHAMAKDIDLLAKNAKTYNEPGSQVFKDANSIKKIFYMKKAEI
Experiment [4] has as its system panel of 32 bromodomains, including BET bromodomains. The experiment can be described thus: bromoMAX panel screen, Eurofins. The note with it: screened at 10 μM against 32 bromodomains. Format: binding.
Experiment [5] concerns BRD9. The conditions noted are these: BRD9 versus other bromodomains; cited from earlier work.

Structures are written as SMILES. “Also recorded” adds a separate entry of the source.

PB1(5), sequence (Q86U86 653-763 limits assumed): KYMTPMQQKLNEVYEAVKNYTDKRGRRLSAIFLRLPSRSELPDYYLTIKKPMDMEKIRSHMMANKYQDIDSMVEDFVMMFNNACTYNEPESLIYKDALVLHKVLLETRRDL
SMARCA2B, sequence (P51531 1-1572 isoform P51531-2): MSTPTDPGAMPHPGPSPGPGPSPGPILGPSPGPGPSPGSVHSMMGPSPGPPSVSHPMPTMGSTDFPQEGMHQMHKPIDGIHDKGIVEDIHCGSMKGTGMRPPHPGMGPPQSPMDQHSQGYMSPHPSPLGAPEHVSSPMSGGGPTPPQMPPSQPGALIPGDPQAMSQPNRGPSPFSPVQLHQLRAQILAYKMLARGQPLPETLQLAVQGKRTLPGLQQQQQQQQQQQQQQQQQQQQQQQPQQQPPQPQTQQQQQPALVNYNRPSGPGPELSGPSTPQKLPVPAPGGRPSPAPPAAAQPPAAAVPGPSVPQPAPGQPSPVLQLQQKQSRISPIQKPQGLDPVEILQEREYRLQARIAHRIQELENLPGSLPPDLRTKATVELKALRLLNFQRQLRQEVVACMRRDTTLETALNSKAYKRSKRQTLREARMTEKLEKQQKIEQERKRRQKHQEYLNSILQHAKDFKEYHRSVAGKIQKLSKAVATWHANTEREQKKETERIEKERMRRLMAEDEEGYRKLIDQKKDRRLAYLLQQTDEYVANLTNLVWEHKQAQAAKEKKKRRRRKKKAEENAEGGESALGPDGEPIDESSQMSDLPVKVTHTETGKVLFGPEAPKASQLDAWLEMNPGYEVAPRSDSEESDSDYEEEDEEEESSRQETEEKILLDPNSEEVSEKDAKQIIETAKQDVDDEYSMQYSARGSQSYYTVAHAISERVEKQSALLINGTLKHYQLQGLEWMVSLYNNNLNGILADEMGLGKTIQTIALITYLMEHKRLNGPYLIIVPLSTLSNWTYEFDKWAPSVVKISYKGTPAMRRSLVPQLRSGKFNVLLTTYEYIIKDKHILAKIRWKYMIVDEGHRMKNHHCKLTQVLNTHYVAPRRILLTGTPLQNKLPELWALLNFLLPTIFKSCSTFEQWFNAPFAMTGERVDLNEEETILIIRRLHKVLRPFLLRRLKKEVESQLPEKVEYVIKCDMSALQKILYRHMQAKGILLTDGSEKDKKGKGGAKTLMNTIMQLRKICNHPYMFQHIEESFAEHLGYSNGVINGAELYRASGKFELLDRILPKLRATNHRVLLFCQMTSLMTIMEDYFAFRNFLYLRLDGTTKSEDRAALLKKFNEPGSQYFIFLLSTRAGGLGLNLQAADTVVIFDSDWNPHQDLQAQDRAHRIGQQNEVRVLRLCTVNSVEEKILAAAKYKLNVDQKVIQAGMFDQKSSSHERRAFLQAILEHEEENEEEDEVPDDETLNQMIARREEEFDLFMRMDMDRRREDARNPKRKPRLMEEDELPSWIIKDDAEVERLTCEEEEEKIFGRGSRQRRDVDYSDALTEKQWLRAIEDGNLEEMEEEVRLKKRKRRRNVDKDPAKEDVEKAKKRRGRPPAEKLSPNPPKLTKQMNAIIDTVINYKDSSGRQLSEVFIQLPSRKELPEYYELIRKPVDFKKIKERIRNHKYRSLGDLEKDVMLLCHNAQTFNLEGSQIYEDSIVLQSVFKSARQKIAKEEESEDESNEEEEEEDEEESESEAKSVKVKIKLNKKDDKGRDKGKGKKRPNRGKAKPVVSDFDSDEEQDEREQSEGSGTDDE

As to `CCC(CC)C1CC12CCn1c2nc(=O)c2c(Cl)cccc21` (centres unmarked) [LM146, 6′-Chloro-2-(pentan-3-yl)-1′,2′-dihydro-5′H-spiro[cyclopropane-1,3′-pyrrolo[1,2-a]quinazolin]-5′-one], the Kd (usually the concentration at which binding is half-saturated) in experiment [1] worked out at 2.1 µM; in experiment [2], 0.061 µM; in experiment [3], 0.11 µM. Besides, the “selectivity for PB1(5) over SMARCA2B” value in experiment [2] is roughly 34 fold. In addition, the “selectivity for PB1(2) over SMARCA2B” value in experiment [3] (from bromoSCAN KD values) is roughly 19 fold. The “binding profile in bromoMAX panel” value in experiment [4] is reported as “does not interact with bromodomains outside of sub-family VIII; also recorded: only binds to bromodomains within the sub-family VIII; also recorded: no binding to any bromodomains outside the sub-family VIII”.

Turning to `CCC(/C=C1\CCCn2c1nc(=O)c1c(Cl)cccc12)CC` [Compound 21, (E)-7-Chloro-4-(2-ethylbutylidene)-1,2,3,4-tetrahydro-6H-pyrido[1,2-a]quinazolin-6-one], the Kd was found to be 26 µM in experiment [1], 1.1 µM in experiment [2] and 5.4 µM in experiment [3]. In addition, the “selectivity for PB1(5) over SMARCA2B” value in experiment [2] is roughly 24 fold.

As to `CCn1cc(-c2cccc(C(F)(F)F)c2)c2sc(C(=N)NC3CCS(=O)(=O)CC3)cc2c1=O` [I-BRD9], the “selectivity over a panel of other bromodomains” value in experiment [5] was “more than 70 fold”.
